US11229683B2, “Hematopoietic growth factor proteins and analogs thereof and angiotensin converting enzyme inhibitors for treatment of radiation exposure” (priority 2015, dated 2022)
Positions count from the first letter of the chain named. Names and notes keep the numbering of the source. Like-named read-outs stand apart in the source and are kept apart here. Marks after values point to notes of the source that are not given here.

Experiments:
[1] = system: irradiated rats; assay: Rat 13 Gy leg-out TBI model, transthoracic echocardiography on day 50, Example 8; assay type: in vivo
Experimental: Non-irradiated rats (0 Gy) served as controls. On day 50, the rats were anesthetized with isoflurane (2%) and transthoracic echocardiography was performed. Measurements were obtained by an investigator who was blinded to the treatment groups. Animals were studied in the left lateral decubitus position and data was recorded with a Vivid 7 echocardiographic system (General Electric, Waukesha, Wis.).

[2] = system: lethally irradiated rats; conditions: 13 Gy leg-out TBI, TC sc day 1, Lisinopril in drinking water Day 7 to Day 150, 12 rats/group
Excerpt: Female WAG/RijCmcr rats were irradiated with 13 Gy at 12 weeks of age when they weighed ˜150-170 gm. Briefly, animals were immobilized in a plexiglass jig to avoid anesthetic. One hind leg was shielded with a one-quarter inch thick lead block. Shielding one leg from radiation exposure is sufficient to prevent death from hematopoietic failure during the following 40 days. […] The x-ray system was operated at 320 kVp and 13 mAs with a half value layer of 1.4 mm Cu. During the irradiation, each rat was confined in a separate chamber in a plastic jig, which allowed irradiation of 2 rats simultaneously. The chambers were placed on a plane perpendicular to the beam direction with distance from source to the midline of rats to be set at 33.5 cm. Collimator jaws were used to define a radiation field large enough to cover both chambers with adequate margin (at least 2 cm). Irradiated rats were given supportive care between days 2 to 14 post-TBI to mitigate acute gastrointestinal injury. This supportive care consisted of sc injections of saline (40 mL/kg/day) from days 3 to 7 post-TBI and the antibiotic enrofloxacin (10 mg/kg/day), given orally in the drinking water from days 2 to 14 post-TBI.
This study comprised four test groups, each consisting of 12 rats (Table 7). Rats received a single sc injection of vehicle solution (10 mM sodium phosphate, 4% mannitol, 1% sucrose pH 6.2) or an HGF triple combination (TC) at 24+4/−0 hr post-irradiation. […] Morbidity and survival of the animals were measured over time. Rats were euthanized if their body condition reached IACUC criteria for euthanasia or if their blood urea nitrogen (BUN) was measured at or above 120 mg/mL, which is an indicator if severe kidney damage. Euthanized animals are classified as non-survivors. Death prior to day 40 in this model typically occurs as a result of hematopoietic failure (H-ARS) or gastrointestinal injury (GI-ARS). Death between days 40 and 90 typically occurs as a result of lung damage, particularly pneumonitis. Death between days 90 and 150 typically occurs as a result of kidney damage (nephropathy). Morbidity at Day 40, 90 and 150 were chosen as representative times for death due to H-ARS, lung damage, and a combination of lung damage and kidney damage, respectively.

[3] = system: irradiated rats; assay: Rat 13 Gy leg-out TBI model, renal injury by blood urea nitrogen (BUN); assay type: in vivo; conditions: surviving animals, TC day 1, Lisinopril Day 7 to Day 150
Experimental: Euthanized animals are classified as non-survivors.
Blood urea nitrogen (BUN) measurements were made as a separate measure of kidney damage in surviving animals on Days 90, 120 and 150 (Table 8). BUN measurements are a commonly used measure of kidney function, with higher BUN numbers indicating greater kidney damage. Normal rat BUN measurements for non-irradiated rats are in the 17-22 mg/dL range. Rats were euthanized if BUN measurements were at or above 120 mg/dL.

[4] = system: 7.5 Gy-irradiated mice; conditions: cited from earlier work
[5] = system: 7 Gy-irradiated rats; conditions: 7 Gy rats; captopril 0.3 g/L in drinking water from day −7 to Day 0; cited from earlier work
[6] = system: 8.25 Gy-irradiated mice; conditions: cited from earlier work
[7] = molecular target: T1, plasma ACE activity (Mus musculus, UniProt P09470); conditions: all 3 doses: 10, 30, or 90 mg/kg sc twice per day; cited from earlier work
T1 construct: host or cells: plasma of perindopril-treated mice (endogenous enzyme)
T1 sequence (P09470 35-1237 limits assumed): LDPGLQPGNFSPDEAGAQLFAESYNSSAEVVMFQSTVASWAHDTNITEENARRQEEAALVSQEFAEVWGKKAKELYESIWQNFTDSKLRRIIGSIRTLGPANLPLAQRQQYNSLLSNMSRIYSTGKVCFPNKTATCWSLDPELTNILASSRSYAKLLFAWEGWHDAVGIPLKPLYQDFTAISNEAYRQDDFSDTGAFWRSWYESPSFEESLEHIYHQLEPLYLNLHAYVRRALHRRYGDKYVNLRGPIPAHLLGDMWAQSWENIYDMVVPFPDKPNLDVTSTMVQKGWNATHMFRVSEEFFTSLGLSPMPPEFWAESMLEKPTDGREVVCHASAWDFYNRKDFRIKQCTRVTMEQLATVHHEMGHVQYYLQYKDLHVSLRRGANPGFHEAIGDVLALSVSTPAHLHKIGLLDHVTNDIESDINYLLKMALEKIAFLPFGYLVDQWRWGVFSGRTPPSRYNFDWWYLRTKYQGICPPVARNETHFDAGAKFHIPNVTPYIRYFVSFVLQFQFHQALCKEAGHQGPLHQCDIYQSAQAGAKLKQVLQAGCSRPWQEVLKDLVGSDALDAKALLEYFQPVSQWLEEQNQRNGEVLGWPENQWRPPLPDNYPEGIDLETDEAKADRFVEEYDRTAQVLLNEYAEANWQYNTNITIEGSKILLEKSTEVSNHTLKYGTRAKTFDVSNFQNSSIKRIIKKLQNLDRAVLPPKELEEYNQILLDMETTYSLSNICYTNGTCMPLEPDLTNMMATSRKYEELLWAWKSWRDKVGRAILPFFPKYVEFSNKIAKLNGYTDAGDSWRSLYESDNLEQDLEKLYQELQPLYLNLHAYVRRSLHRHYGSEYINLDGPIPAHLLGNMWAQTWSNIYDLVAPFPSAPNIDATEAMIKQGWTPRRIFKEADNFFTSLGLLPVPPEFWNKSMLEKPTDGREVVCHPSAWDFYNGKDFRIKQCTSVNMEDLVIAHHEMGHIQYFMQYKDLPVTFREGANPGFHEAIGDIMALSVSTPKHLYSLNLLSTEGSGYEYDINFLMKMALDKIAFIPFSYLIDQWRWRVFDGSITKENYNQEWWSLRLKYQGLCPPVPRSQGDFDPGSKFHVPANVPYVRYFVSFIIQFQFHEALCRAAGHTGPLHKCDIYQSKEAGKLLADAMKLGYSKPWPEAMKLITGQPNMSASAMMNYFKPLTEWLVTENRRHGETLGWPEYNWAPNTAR

[8] = system: 8.3 Gy irradiated mice; conditions: cited from earlier work; for 48-day survival vs water: 8.3 Gy
[9] = system: LD65/30 irradiated one year old mice; assay: Mouse ARS survival assay in one year old mice, 10 Gy (LD65/30), Example 4; assay type: in vivo; conditions: single sc injection 24 h post-TBI
Excerpt: One year old mice are a model for geriatric humans, which often respond differently to radiation exposure and drugs. One year old mice were exposed to different doses of radiation to construct a radiation dose response curve. […] The LD50/30 for one year old mice was 959 cGy, compared to 853 cGy for 12 week old mice. […] Other study details were as described in Example 1 and in Plett et al. (Plett, P A, et al. (2012) Establishing a murine model of the Hematopoietic Syndrome of the Acute Radiation Syndrome. Health Physics 103: 343-355; Plett, P. A., et al. (2014) PEGylated G-CSF (BBT-015), GM-CSF (BBT-007), and IL-11 (BBT-059) analogs enhance survival and hematopoietic cell recovery in a mouse model of the Hematopoietic Syndrome of the Acute Radiation Syndrome. Health Physics Journal 106: 7-20). Mice received one sc injection of the individual test proteins or all possible combinations of the test proteins 24+4/−0 hours post-TBI. Doses of the drugs administered were 1 mg/kg for PEG-G-CSF, 1 mg/kg for PEG-murine GM-CSF, and 0.3 mg/kg for PEG-IL-11.

[10] = system: LD95/30 irradiated mice; assay: Mouse ARS survival assay, LD95/30 (927 cGy), Example 1; assay type: in vivo; conditions: LD95/30 (927 cGy) TBI, single sc injection 24 h post-irradiation; for % 30-d survival: PEG IL-11 0.3 mg/kg, PEG-G-CSF 1 mg/kg, PEG muGM-CSF 1 mg/kg, 40 mice/group
Experimental: The efficacy of three individual HGFs and all possible combinations of the 3 proteins to increase 30 day survival of lethally irradiated mice was tested at an LD95/30 radiation dose (a dose of radiation expected to cause death to 95% of an exposed population within 30 days). […] Male and female mice (Mus musculus, C57BL/6 strain), aged 10-12 weeks upon study initiation, were used for these studies. There were 40 animals per treatment group, 50% males and 50% females. A dose of radiation equal to the LD95/30 was delivered as a single uniform total body dose (TBD) of gamma radiation from a ^137Cs radiation source (GammaCell 40; Nordion International, Kanata, Ontario, Canada) at an exposure rate of 98.575-100.3±5.01 cGy/minute. Pilot studies determined the LD95/30 dose of radiation to be 927 cGy. […] Each group of mice irradiated together in the same irradiation pie was roughly divided among all groups to ensure that each group received the same irradiation exposure conditions. After irradiation mice were randomized to one of the Test Article or Control Article groups. Mice were provided acidified water (pH 2.0-3.0) in bottles and fed certified commercial extruded laboratory animal chow (HARLAN 2018SXC) throughout the study. On day 4 post-exposure, mice were provided acidified autoclaved water in bottles and also in wetted chow (HARLAN 2018SXC) in a petri dish set in the bottom of the cage. Mice were monitored for survival once per day until signs of early euthanasia appear, then twice per day until day 30. Mice meeting predetermined euthanasia criteria were euthanized.
Complete Blood Cell Counts (CBCs) with differential and peripheral smears were performed at baseline (pre-irradiation) and on days 10, 20, 25, and 30 post-TBI. Two randomly selected mice/group in different cages were bled on day −3 to day −1 prior to TBI for a total of 12 baseline CBCs. Four randomly selected mice/group were bled on days 10, 20, 25, and 30 post-TBI. When possible, the same number of males and females in each group and in separate cages were selected for bleeding. […]

[11] = system: LD65/30 irradiated mice; assay: Mouse ARS survival assay, LD65/30 (872 cGy), Example 10; assay type: in vivo; conditions: single sc injection 24 h post-irradiation
Experimental: The efficacy of three individual HGFs and all possible combinations of the 3 proteins to increase 30 day survival of lethally irradiated mice was tested at an LD65/30 radiation dose (a dose of radiation expected to cause death to 65% of an exposed population within 30 days). This experiment was performed as described in Example 1 except that the radiation dose used was 872 cGy and there were 20 mice per test group (10 males/10 females). The three HGFs were the same ones used in Example 1.

[12] = system: irradiated mice; assay: Mouse ARS survival assay, PEG-muGM-CSF, 853 or 872 cGy, Example 5; assay type: in vivo; conditions: for % 30-d survival: listed as PEG-muGM-CSF, 1 mg/kg; for # survivors/total mice: 30 days
Experimental: At the higher 872 cGy radiation dose, 70% of mice treated once with PEG-muGM-CSF at 24 h post-TBI were still alive at 30 days, compared to 10% of vehicle-treated mice.

[13] = system: lethally irradiated mice; conditions: single sc injection; cited from earlier work
[14] = Lisinopril Day 7 to Day 50, mean ± SD, 8 rats
[15] = sc 30 mg/kg twice per day for 4 days starting 48 hours before irradiation
[16] = 853 cGy, 1 mg/kg single sc at 24 h post-TBI
[17] = 872 cGy, 1 mg/kg single sc at 24 h post-TBI

## NCCCC[C@H](N[C@@H](CCc1ccccc1)C(=O)O)C(=O)N1CCC[C@H]1C(=O)O [Lisinopril]
[1]; [14]
  Cardiac Output: 170.1 ± 36.4 mL/min
  End Systolic Volume: 0.125 ± 0.04 mL
  End-Diastolic Volume: 0.585 ± 0.08 mL
  Left Ventricle Internal Diameter systole: 0.364 ± 0.03 cm
  Left Ventricle Mass: 0.919 ± 0.04 grams
  Left Ventricle Posterior Wall diastole: 0.109 ± 0.01 cm
  Left Ventricular Internal Dimension (diastole): 0.57 ± 0.17 cm
  Stroke volume: 0.460 ± 0.06 mL
[1]; Lisinopril on days 7 to 50
  radiation-induced changes to heart parameters: prevented or reduced radiation-induced changes
[2]
  Survival (%) Day 40: 100%
  Survival (%) Day 150: 92%
[2]; listed as Vehicle + Lisinopril
  Survival (%) Day 90: 92%
[2]; listed as Vehicle plus Lisinopril
  Survival (%) Day 90: 100%
[3]
  BUN Day 120, median (20th-80th percentile): 23 (20-24) * mg/dL
  BUN Day 150, median (20th-80th percentile): 25 (22-27) ** mg/dL

## C[C@H](CS)C(=O)N1CCC[C@H]1C(=O)O [Captopril]
[4]; captopril 0.55 g/L in drinking water from day −7 until Day 0
  30-day survival: 0%
[4]; captopril from day 0 (1 hour post-TBI) until Day 30 post-TBI
  30-day survival: 100%
[4]; captopril from day 1 (24 h) post-TBI until Day 7 post-TBI
  30-day survival: 85%
[4]; captopril from day −7 prior to TBI until Day 30 post-TBI
  30-day survival: 15%
[5]
  30-day survival: 24%
[6]; captopril 0.55 g/L in drinking water from day 1 to day 30 post-TBI, genestein (if given) 200 mg/kg sc 24 h pre-TBI
  30-day survival: 45%
[6]; captopril from day 0 (1 h post-TBI) to day 30, genestein (if given) 200 mg/kg sc 24 h pre-TBI
  30-day survival: 55%

## CCC[C@H](N[C@@H](C)C(=O)N1[C@H](C(=O)O)C[C@@H]2CCCC[C@@H]21)C(=O)OCC [perindopril]
[7]
  inhibition of plasma ACE activity: 100%
[8]; sc 10 mg/kg twice per day for 4 days starting 48 hours before irradiation
  48-day survival vs water: did not significantly improve
[8]; [15]
  48-day survival vs water: did significantly improve survival
  30-day survival versus water: improved 30-day survival
[8]; sc 90 mg/kg twice per day for 4 days starting 48 hours before irradiation
  48-day survival vs water: did significantly improve survival

B1: PEG GM-CSF: the murine BBT-007 GM-CSF homolog T3C modified with a 40 kDa-PEG (protein, UniProt P01587 18-141, looked up, variant T3C)
Granulocyte-macrophage …: APCRSPITVTRPWKHVEAIKEALNLLDDMPVTLNEEVEVVSNEFSFKKLTCVQTRLKIFEQGLRGNFTKLKGALNMTASYYQTYCPPTPETDCETQVTTYADFIDSLKTFLTDIPFECKKPGQK
modifications: 40 kDa PEG
notes: the murine BBT-007 GM-CSF homolog T3C modified with a 40 kDa-PEG
[9]; 30 days
  # survivors/total mice: 11/20
[9]; PEG IL-11 0.3 mg/kg, PEG-G-CSF 1 mg/kg, PEG muGM-CSF 1 mg/kg
  % 30-d survival: 55%
[10]; 30 days
  # survivors/total mice: 13/40
[10]
  % 30-d survival: 32.5%
[10]; listed as PEG-GM-CSF
  % 30-d survival: 33%
[11]; 30 days
  # survivors/total mice: 14/20
[11]; PEG IL-11 0.3 mg/kg, PEG-G-CSF 1 mg/kg, PEG muGM-CSF 1 mg/kg, 20 mice/group
  % 30-d survival: 70%
[12]; 853 and 872 cGy pooled, 1 mg/kg single sc at 24 h post-TBI
  % of mice that survived 30 days, pooled data from the two radiation doses: 77.5%
[12]; [16]
  % 30-d survival: 85%
  # survivors/total mice: 17/20
[12]; [17]
  % 30-d survival: 70%
  # survivors/total mice: 14/20
[12]; day 20 post-TBI, 853 and 872 cGy
  hematopoietic recovery (CBC) vs vehicle: accelerated hematopoietic recovery

B2: muGM-CSF: non-long-acting murine GM-CSF (protein, UniProt P01587 18-141, looked up)
Granulocyte-macrophage …: B1 Granulocyte-macrophage … with C3T
[13]
  30-day survival of lethally irradiated mice: does not improve 30-day survival
